Measured values as given in US20240050510A1, “COMBINATION THERAPY COMPRISING UNCARIA FOR TREATING ANXIETY AND DEPRESSION” (The Open University, priority 2020, published 2024).

Experiments:
[1] = literature; cited from earlier work
ICR outbred mice [2] = experiment: Open field test (OFT), anxiety-like behavior; type: in vivo; conditions: 1-week treatment (FIG. 1C)
Experimental: (§1) Animals. ICR outbred mice (Envigo RMS (Harlen), Israel) were kept in the vivarium of the Psychobiological laboratory of the Open University, […] Medical Center, Jerusalem. Mice were kept on a reversed 12-hour light/dark cycle and given ad libitum access to food and water. All experiments were performed during the dark phase under red light (7:00-19:00). All experiments were approved by the Committee for animal care and use according to the NIH guidelines. Drugs administration. […] Unpredictable chronic mild stress (UCMS). Mice were exposed to UCMS for 4 weeks at the age of 4 weeks as previously described (Malkoff, A., et al. (2008) J Neural Transm 115, 1563-1571). Elevated plus-maze (EPM) and Open field test (OFT). Anxiety-like behavior was assessed using EPM and OFT as previously described ([…]. (2009) Brain Res 1256, 138-148). Locomotion was assessed using the OFT and expressed as the percentage of time that the mouse moved in a velocity above 0.1 pixel/sec.

BDNF = experiment: Hippocampal BDNF levels by sandwich ELISA; type: in vivo, mice; conditions: 3-week treatment (FIG. 3B), compared to saline
Experimental: Animals. ICR outbred mice (Envigo RMS (Harlen), Israel) were kept in the vivarium of the Psychobiological laboratory of the Open University, […] Medical Center, Jerusalem. Mice were kept on a reversed 12-hour light/dark cycle and given ad libitum access to food and water. All experiments were performed during the dark phase under red light (7:00-19:00). All experiments were approved by the Committee for animal care and use according to the NIH guidelines. Drugs administration. […] Assessment of BDNF levels. Hippocampus tissue samples are prepared as previously described ([…]., et al., European neuropsychopharmacology, 2006. 16(5): p. 329-339). Briefly, tissues were homogenized in cold extraction Tris-buffer and then acidified with 0.1 M HCl (pH 3.0) for 15 min at room temperature. Homogenates were neutralized with 0.1 M NaOH (pH 7.6) and centrifuged in a microcentrifuge at 7,000 g for 10 min. BDNF levels in the supernatant were evaluated using sandwich ELISA as previously described (Baker-Herman, T. L., et al., Nat Neurosci, 2004. 7(1): p. 48-55).

ICR outbred mice [3] = experiment: Elevated plus-maze (EPM), anxiety-like behavior in UCMS-stressed mice; type: in vivo; conditions: 3-week treatment (FIG. 2), compared to saline
Experimental: as §1, with “pixel/sec. Data analysis and interpretation of results. Data was analyzed using a one-way ANOVA with Treatment as a between subject variable, performed on the time spent in the center area in the Novel Open Field and the time spent in the open arms for anxiety like behavior, and depressive like behavior was measured as the time the animal spent floating without moving. […]” for “pixel/sec.”

ICR outbred mice [4] = experiment: Novel Open Field (NOF), anxiety-like behavior; type: in vivo; conditions: 3 weeks of treatment after 30 days UCMS (FIG. 4B); in comparison to the Saline and UR groups
Experimental: Animals. ICR outbred mice (Envigo RMS (Harlen), Israel) were kept in the vivarium of the Psychobiological laboratory of the Open University, […] Medical Center, Jerusalem. Mice were kept on a reversed 12-hour light/dark cycle and given ad libitum access to food and water. All experiments were performed during the dark phase under red light (7:00-19:00). All experiments were approved by the Committee for animal care and use according to the NIH guidelines. Drugs administration. […] Unpredictable chronic mild stress (UCMS). Mice were exposed to UCMS for 4 weeks at the age of 4 weeks as previously described (Malkoff, A., et al. (2008) J Neural Transm 115, 1563-1571). Novel Open Field (NOF). The novel open field consists of an empty square arena (40×40×40 cm) divided into 36 identical squares and surrounded by Perspex opaque walls. […] Mice were placed in the center of the arena and their behavior was video recorded for a total of 5 min, and later coded by an observer blind to the mice's treatment. Anxiety-like behavior was measured by the time spent in the peripheral area, i.e., the peripheral ring of the arena (6.67 cm from each wall, Walsh & Cummins, (1976) Psychological Bulletin, 83 (3), 482-504). […] Effects were evaluated in independent mice groups following 1 and 3 weeks of treatment. […]

ICR outbred mice [5] = experiment: Forced Swim Test (FST), depressive-like behavior; type: in vivo; conditions: 3 week treatment after 30 days UCMS (FIG. 5B); in comparison to the NHT and Saline groups
Experimental: Animals. ICR outbred mice (Envigo RMS (Harlen), Israel) were kept in the vivarium of the Psychobiological laboratory of the Open University, […] Medical Center, Jerusalem. Mice were kept on a reversed 12-hour light/dark cycle and given ad libitum access to food and water. All experiments were performed during the dark phase under red light (7:00-19:00). All experiments were approved by the Committee for animal care and use according to the NIH guidelines. Drugs administration. […] Unpredictable chronic mild stress (UCMS). Mice were exposed to UCMS for 4 weeks at the age of 4 weeks as previously described (Malkoff, A., et al. (2008) J Neural Transm 115, 1563-1571). Forced Swim Test (FST). […] Depression like behavior was measured as the time the animal spent floated without moving, and swimming was defined as the time the animal spent engaged in active swimming or struggle movement. Effects were evaluated in independent mice groups following 1 and 3 weeks of treatment. The test was recorded by Viewer III (BIOB SERVE) software. […] Data was analyzed using a one-way ANOVA with Treatment as a between subject variable, performed on the time spent in the center area in the Novel Open Field and the time spent in the open arms for anxiety like behavior, and depressive like behavior was measured as the time the animal spent floating without moving. […]

SMILES	isolation-induced increased aggressiveness and decreased sociality [1]	anxiety-like behavior in the OFT (ICR outbred mice [2])	hippocampal BDNF levels (BDNF)	anxiety-like behavior in the EPM (time spent in the open arms) (ICR outbred mice [3])	time in the center of the arena, novel open field (ICR outbred mice [4])	time floated-immobile in the FST (depressive-like behavior) (ICR outbred mice [5])
C/C=C1/CN2CCc3c([nH]c4ccccc34)[C@@H]2C[C@@H]1/C(=C/OC)C(=O)OC [GM, geissoschizine methyl ether]	ameliorated					
CN(C)CCC[C@@]1(c2ccc(F)cc2)OCc2cc(C#N)ccc21 [escitalopram]		ineffective	increased BDNF levels	reduced anxiety-like behavior	spent significantly more time in the center of the arena	spent significantly less time floated-immobile
